These results are taken from PubChem BioAssay (NCI).

Test systems include MDA-MB-435; M14 melanoma; MDA-MB-231 breast; MALME-3M melanoma; SK-MEL-2 melanoma; CAKI-1 renal; IGROV1 ovarian; CCRF-CEM leukemia; U251 CNS; NCI-H522 lung.
What all share (experiment): NCI tumour cell line growth inhibition, 48 h

Each structure is given as a SMILES string.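 Each compound was tested at five concentrations against cells in 96-well plates for 48 hours. At the GI50, growth is halved. The concentration for full growth arrest is given as TGI.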 Where only a bound is given, the exact number is not on record here.

With `CCN(CC)c1ccc(/C=N/NC(=O)c2ccccc2Nc2ccnc(C(F)(F)F)c2)c(O)c1`, the GI50 is 428 nM in the test with MDA-MB-435; 175 nM in the test with M14 melanoma; 261 nM in the test with MDA-MB-231 breast; 331 nM with MALME-3M melanoma; 1290 nM in the test with SK-MEL-2 melanoma; 57.7 nM in the test with CAKI-1 renal. For the same compound, the GI50 in the test on IGROV1 ovarian is 74.7 nM; in the test with CCRF-CEM leukemia, 55 nM; in the test on U251 CNS it was 103 nM; with NCI-H522 lung it was 287 nM. Also, the TGI in the test with MDA-MB-435 was above 100000 nM; in the test with M14 melanoma, 1190 nM; in the test with MDA-MB-231 breast it was above 100000 nM; with MALME-3M melanoma it was 5170 nM; in the test with SK-MEL-2 melanoma, 97900 nM; with CAKI-1 renal it was 387 nM. Besides, the TGI is 71400 nM in the test on IGROV1 ovarian, 1350 nM in the test with CCRF-CEM leukemia, above 44700 nM in the test with U251 CNS and 3550 nM with NCI-H522 lung.
As to `CC(=Nc1ccccc1)C1=C(O)C(Cc2ccc(F)cc2)NC1=O` (stereo not given), the GI50 with MDA-MB-435 was 160 nM; in the test with M14 melanoma, 435 nM; in the test on MDA-MB-231 breast, 1700 nM; in the test with MALME-3M melanoma, 661 nM; with SK-MEL-2 melanoma, 423 nM; in the test on CAKI-1 renal it was 2900 nM. The GI50 is 1710 nM with IGROV1 ovarian, 1810 nM in the test with CCRF-CEM leukemia, 825 nM with U251 CNS and 237 nM in the test with NCI-H522 lung. The TGI in the test with MDA-MB-435 was 449 nM; in the test with M14 melanoma it was above 100000 nM; with MDA-MB-231 breast, above 100000 nM; in the test with MALME-3M melanoma, above 100000 nM; in the test with SK-MEL-2 melanoma, above 100000 nM; with CAKI-1 renal, above 100000 nM. Further, the TGI with IGROV1 ovarian was above 100000 nM; with CCRF-CEM leukemia, above 100000 nM; in the test with U251 CNS, above 100000 nM; in the test with NCI-H522 lung, 2100 nM.
